Measured values as given in patent US20120022070A1, “Heat Shock Protein 90 Inhibitors, Methods Of Preparing Same, And Methods For Their Use” (EMORY UNIVERSITY, priority 2008, published 2012).
pIC50: −log10 of the molar value. Like-named read-outs stand apart in the source and are kept apart here.

Experiments:
[1] = system: tumor specific Hsp90 (NCI-N417 cell lysate); test: Hsp90 binding FP competition assay; parameters: species or system human; conditions: Table 2, GM-cy3B 5 nM
From the text: There are several assays that have been developed to identify novel Hsp90 inhibitors based on the interaction of small molecules with recombinant Hsp90 protein, either yeast or human. To measure a therapeutically significant state of Hsp90, an FP assay that uses human cancer cell lysates instead of recombinant protein (Du, Moulick et al. J. Biomol. Screen, 2007, 12, 915-24) was utilized. It probes the interaction of small molecules with tumor-specific Hsp90 and may therefore lead to inhibitors that are not only selective for cancer cells but also specific for a particular malignancy.
The dose-response effect of the compounds was tested in Hsp90 binding FP competition assays to obtain the IC50 of the compounds. The Hsp90 FP competition assay was performed in 384-well black plate using the small-cell lung carcinoma (SCLC) cell line NCI-N417 as a source of tumor specific Hsp90 and the Cy3B-labeled geldanamycin (GM-cy3B) as the FP ligand. The compound was dissolved in DMSO and added at several concentrations to the reaction buffer containing both GM-cy3B (5 nM) and NCI-N417 cell lysate (1 μg/well) in a final volume of 50 μL. Free GM-cy3B (5 nM) and bound GM-cy3B with NCI-N417 cell lysate (5 nM GM-cy3B and 1 μg/well of NCI-N417 cell lysate) were included as controls in each plate. After incubating at room temperature for 2 to 16 hours, the polarization values were measured and expressed as millipolarization (mP) units using Analyst HT plate reader (Molecular Devices). The competitive efficiency of the compounds were expressed as a percentage of control and calculated according to the following equation:
% of control=((mPc−mPf)/(mPb−mPf))×100
where mPc is the recorded mP from compound wells, mPf is the average recorded mP from GM-cy3B-only wells, and mPb is the average recorded mP from wells containing both GM-cy3B and NCI-N417 lysate. IC50 values were determined using a nonlinear regression analysis as implemented in Prism 4.0 (Graphpad Software).

[2] = system: Her2 protein in SKBr3 breast cancer cells; test: Cell-based Her2 degradation assay by Cytoblot; conditions: Homo sapiens, SK-BR-3, Table 2, values with asterisk, 24 hours
Protocol: Cellular Her2 level after compound treatment was also monitored by microtiter-based Her2 degradation assay, Cytoblot assay (Huezo, Vilenchik et al. Chem. Biol., 2003, 10, 629-634). This is a cell-based assay that enables the quantitative analysis of intracellular levels of Her2 protein.
The human breast cancer cell lines SKBr3 were maintained in RPMI1640 medium supplemented with 10% FBS. 3000 cells in 100 μl of growth medium were plated per well in black, clear-bottom microtiter plates (Corning) and allowed to attach for at least 24 hours at 37° C. and 5% CO2. Compounds at different doses or vehicle (DMSO) were carefully added to the wells and incubated for 24 hours. The cells were washed twice with ice-cold Tris buffer saline (TBS) containing 0.1% Tween 20 (TBST) and fixed with ice-cold methanol. After washing with TBST, the plate was incubated at RT for 1 hour with SuperBlock (Pierce 37535) and overnight at 4° C. with the anti-Her-2 antibody (Santa Cruz Biotechnology). The plate was then washed with TBST and incubated at RT for 2 hours with an anti-rabbit HRP-linked antibody (Sigma A0545). The chemiluminescent substrate solution (Pierce 38040) was added and the plate was read 5 minutes later in an Analyst HT plate reader (Molecular Devices). Luminescence readings resulting from compound-treated cells versus untreated cells (vehicle treated) were quantified and plotted against compound concentrations to give the IC50 values (defined as concentration of compound required to degrade 50% of total Her2).

[3] = system: SKBR3 breast cancer cells; test: Cancer cell growth inhibition assay (CellTiter-Blue); type: cell-based; conditions: Homo sapiens, SK-BR-3, Table 2, 96 hours
Protocol: The effects of the compounds on cancer cell growth were determined using the CellTiter-Blue cell viability assay (Promega). CellTiter-Blue® Cell Viability is based on the ability of living cells to convert a redox dye (resazurin) into a fluorescent end product (resorufin).
The SKBR3 breast cancer cells were plated in 384-well microtiter plates (Costar) and allowed to attach overnight. After treatment with either compounds or vehicle (DMSO) for 96 hours, the cells were measured for their viability by CellTiter-Blue. Briefly, 10 μl of CelTiter-Blue were added to each well in 384-well plates and incubated at 37° C. for 4 hours. The fluorescence intensity (FI) was measured using the Analyst HT plate reader (Molecular Devices) with an excitation at 545 nm and emission at 595 nm. The IC50 was calculated as the compound concentration that inhibits cell viability by 50% compared with vehicle control wells. The IC50 values were determined as described above.

[4] = system: Her2 protein in MCF-7 breast cancer cells; test: Cell-based Her2 degradation assay by Western Blot; conditions: Homo sapiens, read-out: IC50, Her2 degradation WB
From the text: Addition of Hsp90 inhibitors to cancer cells induces the proteasomal degradation of a subset of proteins involved in signal transduction such as Raf1 kinase, Akt and certain transmembrane tyrosine kinases such as Her2. Thus, Her2 degradation in cells is a functional read-out of Hsp90 inhibition. Correlation between Hsp90 binding and Her2 degradation in cancer cells is indicative of a selective biological effect in these cells via Hsp90.
A Western blot-based assay was used to measure the cellular level of Her2 protein in MCF-7 breast cancer cell lysates collected after 24 hours of compound treatment. […] Then 2×10^5 cells were seeded in 24 well plates in 500 μl PRMI1640 medium and allowed to attach overnight. The compounds were dissolved in DMSO, added to the wells, and incubated for 24 hours. The cells were washed using ice-cold phosphate-buffered saline (PBS) and lysed in 1% NP40 lysis buffer (10 mM HEPES, pH 7.4, 150 mM NaCl, 1% Nonident P-40, 5 mM Pyrophosphate, 5 mM NaF, 2 mM Orthovanadate, 10 ug/ml Aprotinin, 10 ug/ml Leupeptin, 1 mM PMSF). After boiling with 6×SDS sample buffer, the cell lysates were separated by SDS-PAGE and transferred to nitrocellulose membrane. The membranes were blocked with 5% milk in tris-buffered saline buffer.

[5] = MCF7, Table 2, values without asterisk, MCF-7 cells, 24 hours

Row | SMILES | pIC50 [1] | pIC50 [2] | pIC50 [3] | pIC50 [4, 5] | pIC50 ([4]; MCF7, 24 h)
1 | CC(C)CN(CC(C)C)C1=CC(=O)C(=O)c2ccccc21 [Compound 49] | 5.73 | 4.73 | 5.56 | 5.30 to 5.60 | –
2 | COc1ccc(NC2=CC(=O)C(=O)c3ccccc32)cc1OC [Compound 61] | 6.41 | 5.32 | 5.50 | – | –
3 | COc1ccc(NC2=CC(=O)C(=O)c3ccccc32)c(OC)c1 [Compound 53] | 6.89 | 5.40 | 5.85 | 5.30 to 5.60 | –
4 | O=C1C=C(Nc2cc3c(cc2Br)OCO3)c2ccccc2C1=O [Compound 65] | 6.28 | 4.81 | 5.44 | – | –
5 | O=C1C=C(N2CCC(Cc3ccccc3)CC2)c2ccccc2C1=O [Compound 45] | 6.64 | 5.65 | 6.02 | 5.60 to 5.90 | –
6 | COc1cc(Br)c(NC2=CC(=O)C(=O)c3ccccc32)cc1OC [Compound 66] | 6.21 | 4.65 | 4.96 | – | –
7 | COc1ccc(S(=O)(=O)N2CCN(C3=CC(=O)C(=O)c4ccccc43)CC2)cc1OC [Compound 64] | 6.24 | 4.54 | < 4.70 | – | –
8 | O=C1C=C(N2CCN(S(=O)(=O)c3cc(Cl)cc(Cl)c3O)CC2)c2ccccc2C1=O [Compound 63] | 5.88 | 4.58 | < 4.70 | – | –
9 | COc1cc(NC2=CC(=O)C(=O)c3ccccc32)cc(OC)c1 [Compound 54] | 8.00 | 5.38 | 5.13 | 5.30 to 5.60 | –
10 | O=C1C=C(N2CCC(O)(c3ccc(Cl)cc3)CC2)c2ccccc2C1=O [Compound 58] | 6.27 | 5.77 | 6.37 | – | –
11 | COc1ccccc1NC1=CC(=O)C(=O)c2ccccc21 [Compound 50] | 7.05 | 5.42 | 5.91 | 5.60 to 5.90 | –
12 | O=C1C=C(Nc2ccc3c(c2)OCO3)c2ccccc2C1=O [Compound 55] | 7.40 | 5.42 | 5.50 | 5.30 to 5.60 | –
13 | O=C1C=C(N2CCN(Cc3cccc(C(F)(F)F)c3)CC2)c2ccccc2C1=O [Compound 56] | 6.28 | 5.72 | 6.52 | – | –
14 | COc1ccc(NC2=CC(=O)C(=O)c3ccccc32)cc1 [Compound 51] | 7.15 | 5.44 | 4.80 | – | 5.60 to 5.90
15 | Cc1cc(C)nc(NC2=CC(=O)C(=O)c3ccccc32)c1 [Compound 67] | 6.19 | 4.94 | 6.68 | – | –
16 | COc1cc(NC2=CC(=O)C(=O)c3ccccc32)cc(OC)c1OC [Compound 60] | 6.74 | 5.07 | 5.62 | – | –
